Several values for one entry are separate records, joined by “and”; a condition that tells them apart may be missing. Equal values may be shown once. Read-outs that look alike come from different tables or passages of the source.
Key:
[1] = test system: HCT 116 human colorectal carcinoma cells; assay: Alamar Blue cell proliferation assay, HCT 116; assay type: cell-based; conditions: HCT 116 cells, 72 h
Protocol: (§1) Kinase assays are performed using full-length recombinant Plk1 enzyme produced in a baculovirus expression system and casein from bovine milk as a substrate. Results represent the means of 2 independent experiments with each data point measured in duplicate. NCI-H460 human non-small cell lung cancer and HCT 116 human colon carcinoma cell lines are used in Alamar Blue™ based proliferation assays. Results represent the means of 3 dose titrations for each cell line with each data point measured in duplicate. Two independent kinase assay experiments are carried out to determine the inhibitory activity of compound (12B) on the Plk1 enzyme. 7 concentrations of compound (12B) are used and each concentration is tested in duplicate measurements.
(§2) For each cell line a proliferation assay experiment is carried out to determine the EC50 values in triplicate. 12 concentrations of each compound are used and each concentration is tested in duplicate measurements.
(§3) HCT 116 human colorectal carcinoma (ATCC CCL 247) and NCI-H460 human lung carcinoma (ATCC HTB-177) cells are used in an Alamar Blue™ based proliferation assay.
(§4) The Alamar Blue™ assay is designed to quantitatively measure the proliferation of cells by incorporating a fluorometric/colorimetric growth indicator that is based on the detection of metabolic activity in viable cells.
(§5) HCT 116 and NCI-H460 cells are grown in IMDM medium containing 10% FCS and 2 mM L-glutamine. They are maintained at 37° C. and 5% CO2 in a humidified atmosphere with a split ratio of 1:5. For proliferation assays in the 96-well format, penicillin-streptomycin is added to the medium at a final concentration of 100 u/ml penicillin and 100 μg/ml streptomycin.
(§6) On day one of the experiment, 1000 cells in 180 μl medium are seeded into each well of a sterile 96-well flat-bottom plate. The plates are kept in the incubator overnight. The compounds are dissolved in DMSO at a concentration of 1000 μM. On day two of the experiment, 12 serial dilutions (1:3) of the compounds are prepared in medium containing 0.1% DMSO. 20 μl of the dilutions are added to each well to yield a final volume of 200 μl per well. As a control, medium containing 0.1% DMSO is added to the designated wells. The cells are then incubated for 72 h. After this incubation period, 20 μl of Alamar Blue™ is added to each well. After 6 h of incubation, the plates are measured in a fluorescence spectrophotometer (excitation 531 nm, emission 595 nm, slits 15, integrate time 0.1). All data points are measured in duplicates.
(§7) The mean value from the duplicates is taken and the background is subtracted. The “0.1% DMSO value” (the mean value obtained from wells containing cells plus 0.1% DMSO containing medium) is taken as “100% control”. […]

human Plk1 enzyme = molecular target: T1, human Plk1 enzyme (Homo sapiens, UniProt P53350); assay: Plk1 low enzyme inhibition (kinase) assay; assay type: biochemical; conditions: casein substrate, 7.5 μM ATP
T1 construct: The full-length coding region of the human Plk1 enzyme (residues 1-603); made in house; host or cells: Sf21 insect cells, baculovirus (pAcG2T vector, BD Biosciences)
Protocol: as §1
The compound is dissolved in DMSO at a concentration of 10 mM. For the proliferation assay and the first kinase assay the compound is freshly dissolved. For the second kinase assay a 10 mM stock solution in DMSO is used.
A baculoviral expression system is used to generate full-length recombinant Plk1 enzyme for the assay. Casein from bovine milk is used as a substrate. All other reagents are from the highest grade of purity commercially available. […]

[2] = test system: NCI-H460 human lung carcinoma cells; assay: Alamar Blue cell proliferation assay, NCI-H460; assay type: cell-based; conditions: 72 h
Protocol: as §1, §2, §3, §4, §5, §6, §7

hERG channel = molecular target: T2, hERG channel (Homo sapiens, UniProt Q12809); assay: hERG channel assay (whole-cell patch clamp); assay type: cell-based; conditions: HEK 293 cells stably transfected with hERG; 0.3, 1, 3, 10 μM tested; read-out: residual currents value (half-inhibitory concentration from fit to residual hERG current)
T2 construct: expressed in transfected cells; host or cells: HEK293 cells, stably transfected; cDNA from M. Sanguinetti, University of Utah
Protocol: HEK (human embryonic kidney) 293 cells are stably transfected with hERG cDNA (obtained courtesy of M. Sanguinetti, University of Utah). Cells determined for use in patch clamp experiments are plated on glass coverslips in 24 well plates and are cultivated without antibiotic during this time.
Coverslips are placed at the bottom of a 2 mL perfusion chamber mounted on the stage of an inverted microscope. Cells are superfused with a bath solution containing (mM): NaCl (137), KCl (4.0), MgCl2 (1.0), CaCl2 (1.8), Glucose (10), HEPES (10), pH 7.4 with NaOH. […]
Membrane currents are recorded using an EPC-10 or equivalent patch clamp amplifier (HEKA Electronics, Lambrecht, FRG) using the whole-cell configuration of the patch-clamp technique. hERG-mediated inactivating tail currents are elicited using a brief hyperpolarising pulse after channel inactivation at a depolarised potential.
Four concentrations of the compound of formula (12B) according to the present invention (0.3, 1, 3, 10 μM) are applied on different cells. A steady state level of baseline current is measured prior to the application of the test article. […]
Peak current amplitudes are measured for each hyperpolarising step. […] Residual currents (I/Io) are calculated for each cell as the fraction of actual average peak current and average baseline peak current. Current inhibition is expressed as (1−I/I0)*100%. […]

[3] = measurement 1, read-out: Measurement 1 EC50
[4] = measurement 2, read-out: Measurement 2 EC50
[5] = measurement 3, read-out: Measurement 3 EC50

T1 sequence (P53350 whole entry, the tested form may be a part): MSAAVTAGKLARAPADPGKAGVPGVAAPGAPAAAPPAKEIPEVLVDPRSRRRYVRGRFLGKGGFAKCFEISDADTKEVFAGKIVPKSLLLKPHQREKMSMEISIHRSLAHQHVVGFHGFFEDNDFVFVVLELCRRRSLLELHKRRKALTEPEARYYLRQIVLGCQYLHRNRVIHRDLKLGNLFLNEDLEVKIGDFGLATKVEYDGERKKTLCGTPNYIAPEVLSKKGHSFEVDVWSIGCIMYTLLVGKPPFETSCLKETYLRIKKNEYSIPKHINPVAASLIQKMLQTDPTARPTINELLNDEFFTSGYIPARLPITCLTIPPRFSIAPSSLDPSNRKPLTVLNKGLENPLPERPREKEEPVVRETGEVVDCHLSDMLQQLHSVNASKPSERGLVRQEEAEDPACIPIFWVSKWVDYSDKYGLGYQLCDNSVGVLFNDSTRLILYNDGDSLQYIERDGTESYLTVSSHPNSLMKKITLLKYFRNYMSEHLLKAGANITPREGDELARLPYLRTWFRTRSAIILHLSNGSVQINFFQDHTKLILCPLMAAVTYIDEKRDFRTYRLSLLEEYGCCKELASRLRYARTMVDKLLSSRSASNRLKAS
T2 sequence (Q12809 whole entry): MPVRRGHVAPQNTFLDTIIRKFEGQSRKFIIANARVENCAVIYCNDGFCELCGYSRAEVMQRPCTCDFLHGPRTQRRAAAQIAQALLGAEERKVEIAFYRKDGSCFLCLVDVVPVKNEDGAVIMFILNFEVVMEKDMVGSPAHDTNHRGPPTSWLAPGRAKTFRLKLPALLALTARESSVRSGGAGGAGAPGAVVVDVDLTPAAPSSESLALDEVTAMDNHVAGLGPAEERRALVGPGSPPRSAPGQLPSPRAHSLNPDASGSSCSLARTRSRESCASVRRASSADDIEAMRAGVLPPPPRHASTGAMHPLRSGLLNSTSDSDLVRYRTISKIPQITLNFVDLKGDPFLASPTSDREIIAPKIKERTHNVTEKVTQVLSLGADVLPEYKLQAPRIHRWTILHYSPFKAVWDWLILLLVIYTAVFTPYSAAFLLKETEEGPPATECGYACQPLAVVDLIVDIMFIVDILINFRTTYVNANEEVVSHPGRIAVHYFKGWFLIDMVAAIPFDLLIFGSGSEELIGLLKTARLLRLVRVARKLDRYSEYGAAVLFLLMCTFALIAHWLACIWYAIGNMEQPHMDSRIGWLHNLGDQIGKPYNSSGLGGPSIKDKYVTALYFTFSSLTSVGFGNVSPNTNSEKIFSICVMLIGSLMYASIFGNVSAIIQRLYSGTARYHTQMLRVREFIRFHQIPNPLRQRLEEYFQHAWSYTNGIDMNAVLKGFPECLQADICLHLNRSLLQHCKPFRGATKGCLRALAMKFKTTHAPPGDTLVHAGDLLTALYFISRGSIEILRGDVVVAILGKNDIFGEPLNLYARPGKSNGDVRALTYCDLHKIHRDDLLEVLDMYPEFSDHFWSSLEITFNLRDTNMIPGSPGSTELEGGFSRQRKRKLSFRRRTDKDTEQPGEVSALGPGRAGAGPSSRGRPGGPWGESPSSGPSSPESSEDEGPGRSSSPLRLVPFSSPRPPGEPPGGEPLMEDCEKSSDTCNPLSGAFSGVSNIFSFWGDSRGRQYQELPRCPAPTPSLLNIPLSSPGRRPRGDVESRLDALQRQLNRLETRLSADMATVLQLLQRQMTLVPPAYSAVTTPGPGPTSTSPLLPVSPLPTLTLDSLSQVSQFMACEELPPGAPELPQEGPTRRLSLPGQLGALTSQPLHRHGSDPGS

CCC1(O)C(=O)N(C)c2cnc(Nc3ccc(C(=O)N[C@H]4CC[C@H](N5CCN(CC6CC6)CC5)CC4)cc3OC)nc2N1C(C)C (some centres unmarked) [compound 12B]
EC50 ([1]; mean of 3, read-out: Mean EC50): 0.273 µM | EC50 [1, 3]: 0.311 µM | EC50 [1, 4]: 0.335 µM | EC50 [1, 5]: 0.174 µM | IC50 (human Plk1 enzyme; mean of 2 independent experiments, read-out: Mean IC50): 0.008 µM | IC50 (human Plk1 enzyme; single experiments (experiment number 1, 2), read-out: IC50): 0.0081 µM and 0.0079 µM | EC50 ([2]; mean of 3, read-out: Mean EC50): 0.43 µM | EC50 [2, 3]: 0.517 µM | EC50 [2, 4]: 0.471 µM | EC50 [2, 5]: 0.302 µM | IC50 (hERG channel): 9.5 µM
